According to patent US8673857B2, “Long term potentiation with cyclic-GluR6 analogs” (Brown University, priority 2009, dated 2014):
Entries after “also recorded” stand apart in the source; their conditions may differ. Starred links: 1 amine or outer side, 2 acyl side, 3 side chain; linkers in the order of their positions; H or OH if unused. Positions of bridges follow the written chain, without caps; N, C: chain ends. Residues, ends and D or L forms follow the SMILES beside them. Chains are numbered I, II in the order given. No end group written: not given here. X1 = O=C(CCN[*:2])[*:1]; βAla = NCCC(=O)O

How the values were obtained:
[1] = system: NMDA receptor; assay: Whole cell patch recording of isolated NMDA EPSC, CA1 pyramidal neuron in hippocampal slices; settings: perfusion in presence of NBQX 5 μM and picrotoxin 50 μM, clamped at +40 mV, CN2097 2 μM, APV 50 μM
Text: APV is a selective NMDA receptor antagonist.
(§1) CN 2097 is effective in synaptic plasticity and is able to lower the threshold for LTP induction, as shown FIG. 2. […] Without being bound by any particular theory, it is believed that CN 2097 acts through its ability to specifically interfere with NR2B activity and expression to change the sliding threshold for synaptic plasticity, altering the ratio of NR2A:NR2B. Similarly, antagonism of NR2B has been reported to lower the threshold for synaptic plasticity, such that LTP can be induced in response to a normally impotent stimulation with NMDA agonist. […] The cell voltage was clamped at +40 mV and synaptic responses were recorded.

[2] = system: Schaffer Collateral-CA1 synapse; assay: Sub-threshold LTP induction at Schaffer Collateral-CA1 synapse (fEPSP); design: species or system adult Wistar rat; settings: for LTP induction with sub-threshold protocol: CN2097 2 μM, low intensity 1 second 100 Hz HFS that normally fails to induce LTP
Text: It would normally induce no increase in baseline fEPSP responses (lower line).
as §1

[3] = system: WT mouse hippocampal slice; assay: LTP in WT mouse hippocampal slice, one sub-threshold HFS (fEPSP slope)
Procedure: FIG. 6 presents data from a WT mouse adult hippocampal slice. An arrow indicates the time point at which one sub-threshold High Frequency Stimuli (HFS, 100 pulse in 1 second every 10 ms, 100 Hz) was applied. The white box indicates the treatment with CN2097 2 μM.
(§2) Ube3a deficient (“AS”) mice were developed previously (Jiang, Y. H. et al. Mutation of the Angelman ubiquitin ligase in mice causes increased cytoplasmic p53 and deficits of contextual learning and long-term potentiation. Neuron 21, 799-811 (1998)), were obtained through the Jackson Laboratory. Mice were bred on a 129S7 background. To obtain heterozygous mice lacking the Ube3a gene maternally (m−/p+), we crossed a heterozygous female mouse (m−/p+) with a wild-type male mouse (m+/p+). Wild type (WT) littermates (m+/p+) were used as controls.

[4] = system: AS mouse (Ube3am−/p+) hippocampal slices; assay: LTP in AS mouse (Ube3am-/p+) hippocampal slice, three trains of HFS; settings: CN2097 2 μM superfused 20-50 minutes, three trains of HFS 10 seconds apart at 40 minutes
Procedure: Then CN2097 2 μM was superfused from 20-50 minutes. The arrow at 40 minutes indicates three trains of High Frequency Stimuli 10 seconds apart. The HFS is 100 pulses in 1 second with an interpulse interval of 10 ms, i.e. 100 Hz. […] In AS mice this stimulation is normally unable to induce LTP (FIG. 8.). At 90-100 minutes the averaged response was 159.8+/−1.1%, n=7.
as §2

[5] = system: NR2B NMDAR subunit; assay: Electrophysiological and biochemical preliminary studies
Text: (§3) Using Fmoc-based protocols, a series of peptide ligands were synthesized that complement the PDZ-binding domain of PSD-95 with the criteria of being membrane permeable, resistant to protease activity and biologically active. The peptide KNYKKTEV, which codes for the CRIPT PDZ-3 binding motif, was cyclized between the valine (V) and threonine (T) residues via beta-alanine linkage and either myristylated (CN2180) or linked to a poly-arginine tail (CN2097; FIG. 1) to enhance its diffusion and uptake capacity by neurons in intact tissues. Binding specificity of CN2180 was tested against a PDZ-domain array consisting of 96 distinct His-tagged PDZ domains purified and spotted on a gridded nylon membrane. […] CN 2097 acts as competitive ligand for this binding site and as such is able to disrupt the normal binding of NR2B receptors to the PSD. Also, it is believed that CN2097 disrupts NR2B downstream signaling by displacing signaling effectors attached directly or indirectly to the NR2B/PSD-95 signaling complex including CaMKII. […] Without being bound by any particular theory, this effect is believed due to the disruption of apoptotic and necrotic cell signaling pathways that propagate the cell death signal.

[6] = system: retina and hippocampus; assay: Excitotoxic studies with lethal doses of NMDA
Text: as §3

[7] = system: mTOR, S6 and AKT expression pathways; assay: Western blots of in vivo injected retinas, SH-SY5Y neuroblastomas and primary cerebellar granule neurons; format: cell-based
Text: Additionally, upregulation of CaMKII, an NMDAR-PSD-95 associated protein, is believed to be associated with synaptic plasticity. Biochemical analyses using western blots of in vivo injected retinas, cultured SH-SY5Y neuroblastomas and primary cultured mouse cerebellar granule neurons (CGN) was undertaken. Left and right eyes were given in vivo injections of phosphate buffered saline (PBS), NMDA, NMDA with CN 2097 and NMDA with CN5135, the retinas were then removed and lysed. CGNs were stimulated by a paradigm designed to mimic synaptic stimulation ([…] in ACSF) and SH-SY5Y cells were activated by nerve growth factor (NGF 50 ng/ml). […] Additionally CN2097 increased the expression CREB, which is also neuroprotective. Also observed were increases in levels of PSD-95.
CN2097 (2 μM) was tested after injection into eyes/retinas (lower left panel) applied to cell cultures for 5-30 minutes concurrently with either a synaptic stimulation and nerve growth factor (NGF) 50 ng/ml. CN2097 saw increased ERK, AKT1/2, p-S6K, p-S6, p-ERK, p-p38, p-CREB and PSD-95. Additionally, CN2097 (2 μM) inhibited p-JNK. CN2097S (szeto sequence used instead of Pol-Arginine) and CN5135 (2, 10 and […]), a structural analogue of CN2097 with disruptive alanine substitutions at the 0 and −2 ring positions (binding domain) were used a negative controls whilst tat-NR2B9c (TAT, 2 μM) was used as a positive control.

[8] = system: PI3K and AKT signaling; assay: ACPD (mGluR1 agonist) signaling with CN2097 added; format: cell-based; settings: CN2097 added to ACPD
Procedure: ACPD, an agonist of mGluR1, when CN2097 is added leads to an enhancement of PI3K and AKT signaling.

[9] = system: retinal ganglion cells; assay: NMDA-induced ganglion cell death in the rat retina, intravitreal injection; format: in vivo
Procedure: Rat eyes were given an intravitreal injection containing 20 nmol of NMDA with 3 nmol CN2097 being co-administered or injected following NMDA insult at 1, 2 or 6 hrs. Retinal ganglion cell survival was assessed by counting fluorogold-labeled cells In an defined area (between 2 and 3 mm) from the center of the optic nerve head of each retina and compared with untreated (control) retinas.
Tests included 20 nmol NMDA vs 1.2 nmol CN2097/20 nmol NMDA.

[10] = Human plasma half-life; format: in vitro ADME
[11] = Uptake into the brain post i.v.; format: in vivo; settings: hippocampus, cerebellum, periventricular nucleus of the hypothalmus, deep cerebellar nuclei, sub-cortex, retina
Text: In addition uptake into the deep cerebellar nuclei, in the sub-cortex and the retina are noted.

[12] = system: PDZ domains of other MAGUKS, MUPP1, S-SCAM, Shank and spinophilin; assay: PDZ-domain array of 96 His-tagged PDZ domains; format: binding
Text: as §3

[13] = target: T1, PDZ1-PDZ2 domains of PSD-95 (Homo sapiens, UniProt P78352); assay: PDZ-domain array of 96 His-tagged PDZ domains; format: binding
T1 construct: His
Text: as §3

[14] = target: T2, PDZ3 domain of PSD-95 (Homo sapiens, UniProt P78352); assay: PDZ-domain array of 96 His-tagged PDZ domains; format: binding
T2 construct: His
Text: as §3

T1 sequence (P78352 65-246 limits assumed): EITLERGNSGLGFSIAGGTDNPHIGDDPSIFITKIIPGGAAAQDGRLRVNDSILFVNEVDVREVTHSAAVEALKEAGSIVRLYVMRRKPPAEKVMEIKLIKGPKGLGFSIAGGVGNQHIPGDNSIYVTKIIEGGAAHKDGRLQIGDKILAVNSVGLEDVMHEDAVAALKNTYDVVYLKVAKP
T2 sequence (P78352 313-393 limits assumed): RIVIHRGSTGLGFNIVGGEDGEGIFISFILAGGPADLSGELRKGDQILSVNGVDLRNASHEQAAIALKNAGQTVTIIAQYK

Molecule: N[C@@H](CCCP(=O)(O)O)C(=O)O [APV, reference compound]
- effect on pharmacologically isolated NMDA EPSC [1]: abolished the EPSC

Molecule: CC(C)[C@H](NC(=O)[C@@H]1CCC(=O)NCCC(=O)NCCCC[C@H](NC(=O)[C@H](CCCCN)NC(=O)[C@H](Cc2ccc(O)cc2)NC(=O)[C@H](CC(N)=O)NC(=O)[C@H](CCCCN)NC(=O)[C@@H](N)CSSC[C@H](N)C(=O)N[C@@H](CCCNC(=N)N)C(=O)N[C@@H](CCCNC(=N)N)C(=O)N[C@@H](CCCNC(=N)N)C(=O)N[C@@H](CCCNC(=N)N)C(=O)N[C@@H](CCCNC(=N)N)C(=O)N[C@@H](CCCNC(=N)N)C(=O)N[C@@H](CCCNC(=N)N)C(N)=O)C(=O)N[C@@H]([C@@H](C)O)C(=O)N1)C(=O)O [CN2097] (I: H-CKNYKKTEV-OH / II: H-CRRRRRRR-NH2; disulfide I:1-II:1; linker I:6-I:8 via X1)
- duration of induced LTP ([2]; 2 μM CN 2097, 1 second 100 Hz HFS): over 60 minutes
- LTP induction with sub-threshold protocol [2]: results in LTP induction
- LTP induction with sub-threshold protocol ([2]; listed as CN 2097): induced a significant LTP
- effect on pharmacologically isolated NMDA EPSC [1]: lack of effect
- effect on pharmacologically isolated NMDA EPSC ([1]; listed as CN 2097): does not act as an antagonist
- LTP, % of baseline fEPSP slope ([3]; 2 μM treatment combined with one sub-threshold HFS (HFS1, 100 Hz)): 187.2+/−1.034%
- effect of compound alone upon baseline responses ([3]; CN2097 2 μM, between 20 and 40 minutes, before HFS): no significant observed effect
- LTP, averaged response at 90-100 minutes [4]: 159.8+/−1.1%
- specificity toward the NR2B NMDAR subunit [5]: demonstrates specificity
- neuroprotection against lethal doses of NMDA [6]: neuroprotective
- expression of CREB [7]: increased
- levels of PSD-95 [7]: increases
- p-JNK ([7]; 2 μM): inhibiting; also recorded: inhibited
- total protein expression and phosphorylation state of pro-survival signaling proteins (CamKII, ERK, AKT1/2, p-S6K, p-S6, p-ERK, p-p38, p-CREB, PSD-95) ([7]; 2 μM, 5-30 minutes, with synaptic stimulation or NGF 50 ng/ml, or injected retinas): increases in both total protein expression and phosphorylation state; also recorded: increased
- PI3K and AKT signaling with ACPD [8]: enhancement
- NMDA-induced TUNEL-labeling in the retina ([9]; 20 nmol NMDA vs 1.2 nmol CN2097/20 nmol NMDA): blocked
- ganglion cell death with post-treatment ([9]; 20 nmol NMDA, 3 nmol CN2097 co-administered or injected 1, 2 or 6 hrs after NMDA): neuroprotective effects
- NMDA-induced poly(ADP-ribosyl)ation-immunoreactivity (PAR-IR) ([9]; matched paired retinas, 20 nmol NMDA): dose dependent attenuation
- NMDA-induced ganglion cell loss, fluorogold retrograde labeling ([9]; viewed 14 days post insult): provided protection
- NMDA-induced loss of plasma membrane selectivity (LPMS; necrosis) ([9]; vs time matched NMDA-treated retina): blocked
- half-life [10]: ~48 min
- uptake into the brain [11]: uptake into the brain has also been noted

Molecule: CN2180: peptide KNYKKTEV cyclized between valine and threonine via beta-alanine linkage, myristylated (bridge (positions not given here) via βAla; also: cyclized between valine and threonine via beta-alanine linkage, myristylated, site not given here)
- binding to PDZ domains of other MAGUKS and other PDZ-containing proteins [12]: did not bind
- binding specificity to PDZ1-PDZ2 domains of PSD-95 [13]: high specificity
- binding to PDZ3 domain of PSD-95 [14]: moderate binding
